Like-named read-outs stand apart in the source and are kept apart here.
What was measured:
acetylcholinesterase [1] = target: T1, acetylcholinesterase (Gallus gallus, UniProt P36196); assay: Acetylcholinesterase activity inhibition assay, chicken brain homogenate; type: biochemical; conditions: at 10⁻⁵ M
T1 construct: tested for anticholinesterase acitivity in chicken brain homogenate and electric eel extract; from tissue; host or cells: chicken brain homogenate
T1 sequence (P36196 20-767): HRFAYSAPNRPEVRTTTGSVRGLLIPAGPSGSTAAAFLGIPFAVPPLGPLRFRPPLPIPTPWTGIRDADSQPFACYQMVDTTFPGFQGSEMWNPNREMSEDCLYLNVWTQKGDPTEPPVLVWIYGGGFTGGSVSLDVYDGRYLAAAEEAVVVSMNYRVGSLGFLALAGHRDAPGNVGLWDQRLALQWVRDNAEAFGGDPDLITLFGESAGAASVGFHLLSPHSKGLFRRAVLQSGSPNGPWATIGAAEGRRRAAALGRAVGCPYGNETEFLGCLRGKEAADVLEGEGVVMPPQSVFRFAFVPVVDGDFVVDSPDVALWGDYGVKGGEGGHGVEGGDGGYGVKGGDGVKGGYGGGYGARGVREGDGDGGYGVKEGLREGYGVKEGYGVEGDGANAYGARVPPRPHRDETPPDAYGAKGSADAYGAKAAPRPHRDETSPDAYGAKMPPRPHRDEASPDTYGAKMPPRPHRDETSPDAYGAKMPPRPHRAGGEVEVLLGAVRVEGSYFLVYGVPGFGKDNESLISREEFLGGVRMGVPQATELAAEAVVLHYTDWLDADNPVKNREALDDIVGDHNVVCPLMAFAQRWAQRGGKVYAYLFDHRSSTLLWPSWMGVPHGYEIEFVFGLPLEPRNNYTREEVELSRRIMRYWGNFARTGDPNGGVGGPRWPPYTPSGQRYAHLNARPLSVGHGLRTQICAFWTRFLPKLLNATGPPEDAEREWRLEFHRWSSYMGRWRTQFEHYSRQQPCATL
Protocol: (§1) The AZT prodrug was evaluated for anticholinesterase activity at the Laboratory of Neurotoxicology and Pharmacology at Duke University using a standard well established acetylcholinesterase activity inhibition assay. Elleman et. al.; Biochemical Pharmacology; 7:88 (1962) The prodrug was tested for anticholinesterase acitivity in chicken brain homogenate and electric eel extract.

HIV = assay: Antiviral assay, HIV-induced cytopathic effect in CEM cells (tetrazolium/formazan viability readout); type: cell-based; conditions: Human immunodeficiency virus 1, CCRF-CEM; for IC90: read-out: IC₉₀
Protocol: (§2) The antiviral activity of the AZT prodrug was evaluated in the Retrovirus Research Laboratory at Southern Research Institute. The AZT prodrug (Structure 5) was tested against HIV in CEM cells in a standardized assay system. In this assay the CEM cells were grown in microtitre plates and incubated for 6 day with or without a HIV. The cells were incubated with prodrug or AZT at varying concentrations. After 6 days the percentage of viable cells was measured by employing a standardized assay based upon the conversion of a tetrazolium salt to a formazan chromaphore by viable cells. (T.Mossman; J.Immunol.Methods 65:55 (1983)) The production of the chromaphore was measured spectrophotometrically with a Molecular Devices Vmax plate reader at 570 nm. From the optical density data a computer program calculated the per cent reduction in viral cytopathic effect (CPE), the prodrugs cytotoxic effect, and IC₅₀ values.
The IC₅₀ value; defined as that concentration of drug inhibited the HIV induced CPE 50% was 24 nanamolar for the AZT prodrug. […] When the prodrug was added to the cell cultures 8 hours prior to infecting with HIV the IC₅₀ for the prodrug was 5 nanamolar. The IC9₉₀ for the prodrug was 10 nanamolar. The IC₅₀ for AZT under the same conditions was also 5 nanamolar. The IC₉₀ for AZT was 10 nanamolar. The data is summarized in the graph below for an experiment in which the prodrug or AZT were added 8 hours prior to the time of infection with the HIV. [formula] The graph below summarizes the results of an experiment in which the antiviral activity of the AZT prodrug was added 8 hours prior to infection or at the time of infection. [formula]

acetylcholinesterase [2] = target: T2, acetylcholinesterase (Electrophorus electricus, UniProt O42275); assay: Acetylcholinesterase activity inhibition assay, electric eel extract; type: biochemical; conditions: at 10⁻⁵ M
T2 construct: tested for anticholinesterase acitivity in chicken brain homogenate and electric eel extract; from tissue
T2 sequence (O42275 24-633): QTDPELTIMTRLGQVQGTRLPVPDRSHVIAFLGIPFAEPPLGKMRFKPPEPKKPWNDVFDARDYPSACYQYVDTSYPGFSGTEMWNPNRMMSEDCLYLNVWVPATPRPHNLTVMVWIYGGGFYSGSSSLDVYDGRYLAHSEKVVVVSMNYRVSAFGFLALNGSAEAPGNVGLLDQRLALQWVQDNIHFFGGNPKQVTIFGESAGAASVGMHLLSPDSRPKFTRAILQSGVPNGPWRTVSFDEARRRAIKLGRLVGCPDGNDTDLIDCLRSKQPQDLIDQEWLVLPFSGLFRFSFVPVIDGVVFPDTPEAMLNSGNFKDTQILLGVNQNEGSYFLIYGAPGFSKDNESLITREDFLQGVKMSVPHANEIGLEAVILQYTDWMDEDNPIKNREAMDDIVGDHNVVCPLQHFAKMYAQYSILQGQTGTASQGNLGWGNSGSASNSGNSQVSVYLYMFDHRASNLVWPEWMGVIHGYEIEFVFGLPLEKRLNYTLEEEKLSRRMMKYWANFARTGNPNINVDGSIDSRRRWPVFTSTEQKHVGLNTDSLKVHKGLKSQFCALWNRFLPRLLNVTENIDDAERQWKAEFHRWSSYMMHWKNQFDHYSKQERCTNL
Protocol: as §1

[3] = Acute toxicity in mice, intraperitoneal; type: in vivo; conditions: IP
[4] = Cytotoxicity in uninfected CEM cells (tetrazolium/formazan viability readout); type: cell-based; conditions: human, 6 days, read-out: TC₅₀ (concentration that resulted in a 50% reduction of cell viability in uninfected cells)
Protocol: as §2
The IC₅₀ value; defined as that concentration of drug inhibited the HIV induced CPE 50% was 24 nanamolar for the AZT prodrug. […] When the prodrug was added to the cell cultures 8 hours prior to infecting with HIV the IC₅₀ for the prodrug was 5 nanamolar. The IC9₉₀ for the prodrug was 10 nanamolar. The IC₅₀ for AZT under the same conditions was also 5 nanamolar. The IC₉₀ for AZT was 10 nanamolar. […]

[5] = target: HIV reverse transcriptase (Human immunodeficiency virus type 1 group M subtype B, UniProt P04585); conditions: read-out: concentration at which HIV reverse transcriptase is inhibited by 50%; cited from earlier work
[6] = cited from earlier work
[7] = added 8 hours prior to infecting with HIV, read-out: IC₅₀
[8] = added 8 hours prior to infecting with HIV

CCOC(=O)CC(OP(=O)(OC[C@H]1O[C@@H](n2cc(C)c(=O)[nH]c2=O)C[C@@H]1N=[N+]=[N-])OC(CC(=O)OCC)c1ccc(OC(C)=O)cc1)c1ccc(OC(C)=O)cc1 (stereo partly drawn) [AZT prodrug]
inhibition of acetylcholinesterase activity (acetylcholinesterase [1]): No inhibition | IC50 (HIV; 144 h, 6 days, drug not added before infection, read-out: IC₅₀ (concentration that inhibited the HIV induced CPE 50%)): 24 nM | IC50 (HIV; [7]): 5 nM | IC90 (HIV; [8]): 10 nM | inhibition of acetylcholinesterase activity (acetylcholinesterase [2]): No inhibition | acute toxicity ([3]; mice, 100 mg/kg as an emulsion in 5% Emulphor EL 620): no acute toxicity | acute toxicity ([3]; one mouse, 300 mg/kg, 24 hour period of observation): without evident acute toxicity | CC50 at 144 h [4]: 7800 nM

Cc1cn([C@H]2C[C@H](N=[N+]=[N-])[C@@H](CO)O2)c(=O)[nH]c1=O [AZT, 3'azido-3'deoxythymidine, reference compound]
IC50 (HIV; [7]): 5 nM | IC90 (HIV; [8]): 10 nM

O=C(O)P(=O)(O)O [Phosphonoformate]
IC50 [5]: < 2000 nM

COc1cc(C=CC(C)=O)ccc1O [methyl 4-hydroxy,3-methoxy-styryl ketone]
oral LD₅₀ [6]: > 2 grams/kg
